Test results: PMC12582325 (Proceedings of the National Academy of Sciences of the …, 2025)
“And” between values parts separate entries of the source, which are not always exact repeats. Equal entries are not always repeated. “Also recorded” adds a separate entry of the source. Where two headings read alike, the source gives them in different places. Where a SMILES comes first, the peptide text is derived from it.

Key:
[1] = tested on: Bc.Ste2; format: cell-based, Botrytis cinerea
[2] = tested on: F. oxysporum microconidia; test: Germination of F. oxysporum microconidia; format: cell-based, Fusarium oxysporum f. sp. lycopersici 4287; parameters: Germination of F. oxysporum microconidia (data of Sup.Fig.10): unit not given here; conditions: for Germination of F. oxysporum microconidia (data of Sup.Fig.10): 400 μM pheromone, 13 h, at least 300 spores counted
Method: For F. oxysporum microconidia production, the strain was grown for 3 to 4 d in liquid potato dextrose broth (PDB) at 28 °C and 170 rpm. Germination media ([10]) was used for assessing the spore germination. RE was prepared by removing 2-wk-old tomato plants from vermiculite and washing the roots to remove any adhering substrates ([11]).
Supplementary Figure 10. Germination of F. oxysporum microconidia after 13 h of incubation in Germination Media at a cell density of […] microconidia/mL. The assay was performed with 400 μM of pheromone. All points represent the average of three biological replicates in which at least 300 spores were counted. Statistical significance was determined through one-way analysis of variance (ANOVA) with Dunnett’s multiple comparisons (✱p ≤ 0.05).

[3] = tested on: Bb.Ste2; format: cell-based, Beauveria bassiana; conditions: for Diploid frequency (%): 20 h coculture; for diploid frequency (%) / average (diploid colonies): GPCR strain GEN47 HIS; for average (diploid colonies): dilution 500, mean of Rep1-3
[4] = tested on: Fo.Ste2; format: cell-based, Fusarium oxysporum
[5] = tested on: F. oxysporum infection of tomato plants; test: Tomato plant mortality assay; format: in vivo, Fusarium oxysporum / Solanum lycopersicum; conditions: groups of 10 plants; 3.2 × 10^6 microconidia/mL supplemented with pheromone once at inoculation; 50 d; Kaplan-Meier, log-rank
Method: Tomato plant infection assays were performed as described ([61]) with F. oxysporum microconidia and treatment inoculation as described above. Plants were transferred to a growth and plant survival was recorded daily for 50 d. Plant death was diagnosed as a complete collapse of the stem, without any green parts left. The Kaplan–Meier test was used to assess statistical significance of differences in survival among groups using the log-rank test in GraphPad Prism. The infection experiment was conducted two times with 10 plants per condition.

[6] = tested on: Bc.Ste2; format: cell-based, Botrytis cinerea; remark: listed apart in the source
[7] = tested on: Bb.Ste2; format: cell-based, Beauveria bassiana; conditions: YPL1 library cocultured with Bb.Ste2 strain GEN88, 20 h, 2 d diploid enrichment, NextSeq 500
[8] = tested on: Bb.Ste2; format: cell-based, Beauveria bassiana
[9] = tested on: F. oxysporum in tomato roots; test: Quantification of fungal DNA in tomato roots (qPCR); conditions: 3 d after inoculation, washed roots; compared to the untreated infected roots; three biological replicates
[10] = tested on: Bc.Ste2; format: cell-based, Botrytis cinerea; remark: listed apart in the source
[11] = tested on: Fg.Ste2; format: cell-based, Fusarium graminearum
[12] = tested on: Hj Ste2 GPCR (Hj.Hpr2); format: cell-based, Hypocrea jecorina

`C[C@@H](O)[C@H](NC(=O)[C@H](CS)NC(=O)[C@@H](N)Cc1c[nH]c2ccccc12)C(=O)N[C@@H](Cc1c[nH]c2ccccc12)C(=O)N[C@@H](CCCNC(=N)N)C(=O)NCC(=O)N[C@@H](CCC(N)=O)C(=O)N1CCC[C@H]1C(=O)N[C@@H](CS)C(=O)N[C@@H](Cc1c[nH]c2ccccc12)C(=O)O` [Fo] (H-WCTWRGQPCW-OH; N-terminus assumed) was tested, and the “Diploid frequency (%)” value [1] was 0.1% and 0.3%, the “average (diploid colonies)” value [1] was 0.67 and 1 and the “diploid frequency (%)” value [1] was 0.19% and 0.28%. For the same compound, the “Germination of F. oxysporum microconidia (data of Sup.Fig.10)” value (shortened to “Germination of F. oxysporum microconidia”) ([2]; biological replicate 1 (first line)) was 23,4, the “Germination of F. oxysporum microconidia” value ([2]; biological replicate 2 (second line)) was 23,3 and the “Germination of F. oxysporum microconidia” value ([2]; biological replicate 3 (third line)) was 13,3. For the same compound, the “Mean Diff, Solvent vs. peptide” value ([2]; Sup.Fig.10, Dunnett's multiple comparisons test, n = 3) was 23,77, the “Mean 2 (peptide), germination” value ([2]; Sup.Fig.10, Solvent control mean 43,77, mean of n = 3) was 20,00 and the “Effect on F. oxysporum microconidia germination, in words” value ([2]; exogenous addition of 400 μM peptide, 13 h in Germination Media, 3.2 x 106 microconidia/mL) was “significant reduction”. The “Diploid frequency (%)” value ([3]; Fig. 1D mating matrix, pheromone secreted by MATa strain, GPCR in MATα strain, deep well plate, three technical plating replicates) was 0.7%, the “Diploid frequency (%)” value ([3]; Fig. 1F validation in culture tubes, secreted pheromone, three biological and three technical replicates) was 4.9% and the “diploid frequency (%)” value ([3]; co-culture replicate 1) was 4.61%. The “average (diploid colonies)” value ([3]; co-culture replicate 1) was 22, the “diploid frequency (%)” value ([3]; co-culture replicate 2) was 3.74% and the “average (diploid colonies)” value ([3]; co-culture replicate 2) was 17.67. The “diploid frequency (%)” value ([3]; co-culture replicate 3) was 6.44%, the “average (diploid colonies)” value ([3]; co-culture replicate 3) was 31.33 and the “Fold change yEGFP” value [4] was 236. For the same compound, the Hillslope [4] was 2.574, the logEC50 [4] was -7.534 and the “Sup.Fig.3B Fo.Ste2 biosensor response, group mean” value ([4]; 0.5 μM) was 1195000. For the same compound, the Tomato plant survival [5] was “no significant difference in plant survival”, the “Effect on activation of Bc.Ste2 by Bc pheromone, in words” value ([6]; 0.0005 μM Bc pheromone in combination with 10 μM peptide, four biological replicates, Fig. 2G) was “do not differ significantly from Bc alone; also recorded: no such effect” and the “Bc.Ste2 + pheromones, biosensor response, group mean” value ([6]; Bc + the named peptide, Bc alone mean 134.8, mean of n = 4) was 104.9. For the same compound, the “Enrichment after mating, reads per million minus library before coculture” value [7] was > 340,000 RPM, the “diploid barcode qPCR signal relative to control (2^-dCt)” value [8] was 0 and the “Fungal biomass in inoculated tomato roots (qPCR of Fol4287 actin gene, 2^−ΔΔCt, normalized to tomato gapdh)” value [9] was “significant reduction in fungal biomass”. The “Fold change yEGFP” value [10] was 1, the Hillslope [10] was 0.5934 and the logEC50 [10] was -8.991. For the same compound, the “Sup.Fig.3A Bc.Ste2 biosensor response, group mean” value ([10]; 10 μM) was 1.713, the “Fold change yEGFP” value ([11]; Fg.Ste2 biosensor CPK366, 10 μM synthetic alpha pheromone, normalized to yEGFP background (receptor without pheromone), four biological replicates, Fig. 1E) was 187 and the “Activation of Fg.Ste2 biosensor, in words” value ([11]; chemically synthesized pheromone) was “higher EC50 values”. For the same compound, the “Diploid frequency (%)” value [12] was 0.0%.
